Consider 14 compounds from ChEMBL document CHEMBL6074646, “Carvacrol-conjugated 3-Hydroxybenzoic Acids: Design, Synthesis, cardioprotective potential against doxorubicin-induced Cardiotoxicity, and ADMET study” (Bioorg Med Chem Lett, 2024).

Calls of active or inactive are those of the source. The rule behind the calls is not given here.

Data set [1] relates to H9c2. Description: Cytotoxicity against rat H9C2 cells at 10 uM incubated for 48 hrs by cell counting assay. The format is toxicity, cell-based. As to conditions: h9c2, 48 h.
The subject of data set [2] is H9c2. Description: Protection against doxorubicin-induced cardiotoxicity in rat H9c2 cells assessed as increase in cell viability at 10 uM preincubated for 24 hrs followed by doxorubicin stimulation and measured after 24 hrs. The format is functional, cell-based. As to conditions: time 48.0 hrs.

As for `Cc1ccc(C(C)C)cc1OC(=O)COC(=O)c1cccc(O)c1`, in the data set with H9c2 [1], the Activity entry is reported as “Non-toxic”. As to `Cc1cc(CO)c(C(C)C)cc1OC(=O)CCOC(=O)c1cccc(O)c1`, the result in the data set on H9c2 [2] was inactive. For the same compound, the Activity entry in the data set with H9c2 [1] was “Non-toxic”. Consider `Cc1cc(CO)c(C(C)C)cc1OCCCOC(=O)c1cccc(O)c1`, for which, in the data set on H9c2 [2], the outcome was inactive. Also, the Activity entry in the data set on H9c2 [1] is “Non-toxic”. In the same order, the values of `Cc1ccc(C(C)C)cc1O` [CARVACROL] are “inactive” and “Non-toxic”. In the same order, the values of `Cc1cc(CO)c(C(C)C)cc1OC(=O)COC(=O)c1cccc(O)c1` are “inactive” and “Non-toxic”.

As for `Cc1ccc(C(C)C)cc1OC(=O)CCOC(=O)c1cccc(O)c1`, the Activity result with H9c2 [1] is “Non-toxic”. With `Cc1cc(CO)c(C(C)C)cc1OC(=O)CCCOC(=O)c1cccc(O)c1`, the outcome with H9c2 [2] was inactive. Moreover, the Activity result with H9c2 [1] is “Non-toxic”. For `O=C(O)c1cccc(O)c1` [3-HYDROXYBENZOIC ACID], in that order: “inactive” and “Non-toxic”. For `Cc1cc(CO)c(C(C)C)cc1OCCCCOC(=O)c1cccc(O)c1`, in that order: “inactive” and “Non-toxic”. For `Cc1ccc(C(C)C)cc1OCCCOC(=O)c1cccc(O)c1`, the Activity entry with H9c2 [1] is listed as “Non-toxic”.

Consider `Cc1ccc(C(C)C)cc1OCCCCOC(=O)c1cccc(O)c1`, for which the result with H9c2 [2] was Active. For the same compound, the Activity entry in the data set with H9c2 [1] is “Non-toxic”. `Cc1ccc(C(C)C)cc1OCCOC(=O)c1cccc(O)c1`: in the data set on H9c2 [1], the Activity entry is “Non-toxic”.

As for `Cc1cc(CO)c(C(C)C)cc1OCCOC(=O)c1cccc(O)c1`, the outcome in the data set on H9c2 [2] was inactive. Further, the Activity result in the data set on H9c2 [1] is given as “Non-toxic”. As for `Cc1ccc(C(C)C)cc1OC(=O)CCCOC(=O)c1cccc(O)c1`, in the data set on H9c2 [1], the Activity entry is “Non-toxic”.
